The results in this text go back to patent US8846670B2, “1,2,3,4-tetrahydro-pyrimido(1,2-a)pyrimidin-6-one derivatives, preparation thereof, and pharmaceutical use thereof” (priority 2009, dated 2014).

What all share (type): cell-based
Experiment [1] deals with translocation of the LC3 protein in Hela GFP-LC3 cells. Briefly: Study of the translocation of the LC3 protein in Hela human cells, measured by image analysis cytometry (Test C, autophagy). The conditions noted are these: Homo sapiens, HeLa, 2 h, Hela GFP-LC3 cells with LC3 granulations, EBSS + 10 μM hydroxychloroquine, absolute IC50. Here is the method: The inhibitory activity of the molecules on autophagy is measured by the translocation of the LC3 protein from the cytoplasm to the autophagosomes. For this, Hela cells were transfected with a vector encoding the chimeric protein GFP-LC3. A Hela clone stably expressing the GFP-LC3 protein was selected.
Study of the Translocation of the LC3 Protein in Hela Human Cells, Measured by Image Analysis Cytometry (Test C):
On day 2, the cells are washed twice with EBSS (Sigma #E3024). The cells are then incubated in EBSS, 10 μM of hydroxychloroquine and test products for 2 h at 37° C. in the presence of 5% CO2. The molecules are diluted in dimethyl sulphoxide (DMSO Sigma #D2650), the final DMSO percentage being 0.1%.
After this incubation, the cells are fixed with 4% paraformaldehyde (Sigma #HT501128 4 L) for 10 min. […] The 96-well plates are then read with the iCyte image analysis cytometer (Compucyte).
Two independent experiments make it possible to calculate the mean of the IC50 values.

The subject of experiment [2] is AKT protein phosphorylated on serine 473 (pAKT-S473) in PC3 human prostate carcinoma line. Briefly: Study of pAKT expression in PC3 human prostate carcinoma cells measured by western blotting (Test A). The conditions noted are these: PC-3, 1 to 2 hours incubation, approximate absolute IC50, mean of two experiments. Here is the method:
The inhibitory activity of the molecules on AKT phosphorylation is measured either by western blotting using the technique described below, or by the MSD Multi-spot Biomarker detection technique from Meso Scale Discovery also described below. […] Study of pAKT Expression in Pc3Human Prostate Carcinoma Cells Measured by Western Blotting (Test A): This test is based on measuring the expression of the AKT protein phosphorylated on […]. […] On day 2, the cells are incubated in the presence or absence of the test products for 1 to 2 hours at 37° C. in the presence of 5% CO2. The molecules, diluted in dimethyl sulphoxide (DMSO Sigma #D2650), are added from a 10-times concentrated stock solution, the final percentage of DMSO being 0.1%. […] After this incubation, the cells are lysed for the preparation of the proteins. […] The lysate is centrifuged for 10 min at 6000 rpm. 155 μl of supernatant are recovered. 150 μl are incubated for denaturation for 5 min at 95° C. in the presence of 4× NuPAGE LDS Sample Buffer diluted 4-fold (InVitrogen ref NP0007) and of 10× NuPAGE Sample Reducing Agent diluted 10-fold (InVitrogen ref NP0009). These samples are then frozen at -20° C. […] The gel is then transferred on to an Invitrolon PVDF membrane (Invitrogen #LC2007) permeabilised beforehand for a few seconds in ethanol (Ethanol Fischer Scientific #E/0600DF/15). The transfer is carried out in a Biorad tank at 30 volts overnight or at 60 volts for 3 hours, in the presence of 20× NUPAGE Transfer Buffer diluted 20-fold (InVitrogen ref NP0006). The membrane is then saturated in saturating solution composed of TBS (10× Tris Buffered Saline, Sigma #T5912, diluted 10-fold), 0.1% Tween 20 (Sigma #P5927) and 3% BSA (Bovine Serum Albumin Fraction V, Sigma #A4503) for 6 h after overnight transfer or else for 1 h after transfer for a period of 3 h. […] Two rinses for 5 min in washing solution composed of TBS and 0.1% Tween 20 are carried out before hybridisation of the secondary antibodies. The secondary antibodies are diluted to 1/10000th for the rabbit anti-Mouse IgG HRP antibody ([…] Promega) and to 1/10000th for the goat anti-Rabbit IgG HRP antibody ([…] Promega) in saturating solution, and then shaken for 1 h at ambient temperature. Two rinses for 30 min in washing solution are carried out and then a rinse for 5 min in H2O is carried out in order to eliminate the remaining Tween 20. […] The luminescence is read with the FujiFilm device (Ray Test). The FUJI device measures the total luminescence signal obtained (AU) for each band selected. It then subtracts the background noise (BG) proportional to the size of the band selected (Area), said background noise being calculated from a specific background noise band, with a view to obtaining the specific signal (AU-BG) for each band. The band obtained in the absence of product and in the presence of 0.1% DMSO is considered to be the 100% signal. The software calculates the % specific activity (Ratio) obtained for each band selected as a function of this 100% signal. The percentage inhibition is calculated for each concentration according to the formula (100%-Ratio). Two independent experiments make it possible to calculate the mean of the percentages of inhibition obtained at a given concentration for the products tested only at one concentration. […] Two independent experiments make it possible to calculate the mean of the IC50 values.
For orientation: A western blot detects proteins with antibodies after separation by electrophoresis.

The subject of experiment [3] is P. falciparum (highly chloroquine-resistant strain Fcm29-Cameroon). Description: Antimalarial activity test (radioactive micromethod of Desjardins). Particulars: Plasmodium falciparum, Erythrocyte, infected human erythrocytes, 48 h, tritiated hypoxanthine incorporation. As for the experimental part:
Antimalarial Activity Test
The P. falciparum strains are cultured in solutions of RPM! […] For each assay, the parasites are incubated with selected concentrations of drugs for 48 h at 37° C. in a humid atmosphere and at 5% CO2. Artemisinin, artesunate and also chloroquine diphosphate are used as reference molecules. The first dilution of the drug is prepared at 1 mg/ml in dimethyl sulphoxide. The range of successive daughter solution dilutions is also prepared in dimethyl sulphoxide. […] These dilutions are then added to the parasites in culture in the microplates. […] The growth of the parasites is measured by incorporation of tritiated hypoxanthine (added 24 h after the beginning of the exposure to the drug) compared with the incorporation in the absence of drug.

Experiment [4] has as its system AKT protein phosphorylated on serine 473 (P-AKT-S473) in PC3 human prostate carcinoma line. Briefly: Study of pAKT expression in PC3 human prostate carcinoma cells measured by the MSD Multi-spot Biomarker Detection technique (Test B). Particulars: Homo sapiens, PC-3, P-AKT-S473 in PC3 cells, MSD sandwich immunoassay, 1 to 2 h incubation; absolute IC50, mean of 2 experiments. Here is the method: The inhibitory activity of the molecules on AKT phosphorylation is measured either by western blotting using the technique described below, or by the MSD Multi-spot Biomarker detection technique from Meso Scale Discovery also described below.
Study of pAKT Expression in PC3Human Prostate Carcinoma Cells Measured by the MSD Multi-Spot Biomarker Detection Technique from Meso Scale Discovery (Test B):
The primary antibody specific for P-AKT-S473 (Kit #K151CAD) is coated onto an electrode in each well of the 96-well plates of the MSD kit: after the addition of a protein lysate to each well, the signal is visualised by adding a secondary detection antibody labelled with an electrochemiluminescent compound. The procedure followed is that described in the kit.
On day 2, the cells are incubated in the presence or absence of the test products for 1 to 2 h at 37° C. in the presence of 5% of CO2. The molecules, diluted in dimethyl sulphoxide (DMSO Sigma #D2650), are added from a 20-times concentrated stock solution, the final percentage of DMSO being 0.1%.
After this incubation, the cells are lysed for the preparation of the proteins. […] At this stage, the plates containing the lysates can be frozen at −20° C. or at −80° C.
The wells of the 96-well plates of the MSD kit are saturated for 1 h at ambient temperature with the blocking solution of the MSD kit. Four washes are carried out with 150 μl of Tris Wash Buffer of the MSD kit. The lysates previously prepared are transferred into the 96-well multi-spot plates of the MSD kit and incubated for 1 h at ambient temperature, with shaking. Four washes are carried out with 150 μl of Tris Wash Buffer of the MSD kit. 25 μl of the MSD sulfo-tag detection antibody solution are added to the wells and incubated for 1 h at ambient temperature, with shaking. Four washes are carried out with 150 μl of Tris Wash Buffer of the MSD kit. 150 μl of Read Buffer of the MSD kit are added to the wells and the plates are read immediately on the S12400 instrument from Meso Scale Discovery.
The instrument measures a signal for each well. Wells without cells and containing the lysis buffer serve to determine the background noise that will be subtracted from all the measurements (min). The wells containing cells in the absence of product and in the presence of 0.1% DMSO are considered to be the 100% signal (max). The percentage inhibition is calculated for each concentration of test product according to the following formula: (1−((test−min)/(max−min)))×100.
2 independent experiments make it possible to calculate the mean of the IC50 values.

One may read the IC50 as the concentration that inhibits the measured activity by half. By inhibition is commonly meant the drop in the measured response relative to a control, in per cent.

Regarding `O=c1cc(N2CCOCC2)nc2n1CC[C@@H](C(F)(F)F)N2CCc1ccccc1` [Example 3, (S)-2-morpholin-4-yl-9-phenethyl-8-trifluoromethyl-6,7,8,9-tetrahydropyrimido[1,2-a]pyrimidin-4-one], the results for the IC50 in experiment [1] and in experiment [2] were 20 nM and 15 nM, respectively.

As to `O=c1cc(N2CCOCC2)nc2n1CC[C@@H](C(F)(F)F)N2C[C@@H](O)c1cc2ccccc2s1` [Example 48, 9-((R)-2-Benzo[b]thiophen-2-yl-2-hydroxyethyl)-2-morpholin-4-yl-8-(S)-trifluoromethyl-6,7,8,9-tetrahydro-pyrimido[1,2-a]pyrimidin-4-one], in experiment [3], the inhibition at 0.1 µM worked out at 89% and the inhibition at 1 µM is 96%.

As for `COc1ccc(N2c3nc(N4CCOCC4)cc(=O)n3CC[C@H]2C(F)(F)F)cc1` [Example 27, (8S)-9-(4-methoxyphenyl)-2-(morpholin-4-yl)-8-(trifluoromethyl)-6,7,8,9-tetrahydro-4H-pyrimido[1,2-a]pyrimidin-4-one], the IC50 in experiment [1] was 363 nM; in experiment [4] it was 10 nM. In addition, in experiment [3], the inhibition at 1 µM stood at 36%.

Compound `COc1ccc(C(C)N2c3nc(N4CCOCC4)cc(=O)n3CC[C@H]2C(F)(F)F)cc1` (mixture of isomers) [Example 9, (8S)-9-[(1R and 1S)-1-(4-methoxyphenyl)ethyl]-2-(morpholin-4-yl)-8-(trifluoromethyl)-6,7,8,9-tetrahydro-4H-pyrimido[1,2-a]pyrimidn-4-one] returned an IC50 in experiment [2] of 676 nM.

Consider `COc1ccc([C@H](O)CN2c3nc(N4CCOCC4)cc(=O)n3CC[C@H]2C(F)(F)F)c(Cl)c1` [Example 54, 9-[(S)-2-(2-Chloro-4-methoxyphenyl)-2-hydroxyethyl]-2-morpholin-4-yl-8-(S)-trifluoromethyl-6,7,8,9-tetrahydro-pyrimido[1,2-a]pyrimidin-4-one], for which, in experiment [3], the inhibition at 0.1 µM came out at 83% and the inhibition at 1 µM is 99%.

Regarding `O=c1cc(N2CCOCC2)nc2n1CC[C@@H](C(F)(F)F)N2C[C@@H](O)c1cccc(O)c1` [Example 49, 9-[(S)-2-Hydroxy-2-(3-hydroxyphenyl)ethyl]-2-morpholin-4-yl-8-(S)-trifluoromethyl-6,7,8,9-tetrahydropyrimido[1,2-a]pyrimidin-4-one], in experiment [3], the inhibition at 0.1 µM came out at 81% and the inhibition at 1 µM is 99%.

For `O=c1cc(N2CCOCC2)nc2n1CC[C@@H](C(F)(F)F)N2CCc1ccc(O)cc1` [Example 56, 9-[2-(4-Hydroxyphenyl)ethyl]-2-morpholin-4-yl-8-(S)-trifluoromethyl-6,7,8,9-tetrahydropyrimido[1,2-a]pyrimidin-4-one], in experiment [3], the inhibition at 0.1 µM stood at 94% and the inhibition at 1 µM worked out at 99%.

Turning to `O=c1cc(N2CCOCC2)nc2n1CC[C@@H](C(F)(F)F)N2c1ccc(F)cc1` [Example 13, (8S)-9-(4-fluorophenyl)-2-(morpholin-4-yl)-8-(trifluoromethyl)-6,7,8,9-tetrahydro-4H-pyrimido[1,2-a]pyrimidin-4-one], the IC50 in experiment [1] amounted to 632 nM; in experiment [4], 25 nM. The inhibition at 1 µM in experiment [3] stood at 52%.

Turning to `COc1ccccc1CCN1c2nc(N3CCOCC3)cc(=O)n2CC[C@H]1C(F)(F)F` [Example 24, (8S)-9-[2-(2-methoxyphenyl)ethyl]-2-(morpholin-4-yl)-8-(trifluoromethyl)-6,7,8,9-tetrahydro-4H-pyrimido[1,2-a]pyrimidin-4-one], the IC50 in experiment [1] was 103 nM; in experiment [4], 9 nM. For the same compound, the inhibition at 0.1 µM in experiment [3] amounted to 40%. The inhibition at 1 µM in experiment [3] amounted to 100%.

Take `CN(C)CC(=O)Nc1cccc([C@H](O)CN2c3nc(N4CCOCC4)cc(=O)n3CC[C@H]2C(F)(F)F)c1` [Example 50, 2-Dimethylamino-N-{3-[(S)-1-hydroxy-2-((S)-8-morpholin-4-yl-6-oxo-2-trifluoromethyl-3,4-dihydro-2H,6H-pyrimido[1,2-a]pyrimidin-1-yl)ethyl]phenyl}acetamide]: in experiment [3], the inhibition at 0.1 µM is 79% and the inhibition at 1 µM amounted to 99%.

In the case of `COc1cc(F)ccc1[C@H](O)CN1c2nc(N3CCOCC3)cc(=O)n2CC[C@H]1C(F)(F)F` [Example 52, 9-[(S)-2-(4-Fluoro-2-methoxyphenyl)-2-hydroxyethyl]-2-morpholin-4-yl-8-(S)-trifluoromethyl-6,7,8,9-tetrahydro-pyrimido[1,2-a]pyrimidin-4-one], in experiment [3], the inhibition at 0.1 µM is 75% and the inhibition at 1 µM turned out to be 99%.
